Measurements: patent US20080051413A1, “Nitrophenylpiperazine derivative of xanthine which relaxes tracheal airway and increases respiratory performance” (KAOHSIUNG MEDICAL UNIVERSITY, priority 2006, published 2008)

Experiments:
[1] = tested on: respiratory performance; assay: Pulmonary function after i.v. injection (RL, Cdyn, tidal volume); format: in vivo; details: 1 mg/kg i.v., guinea pig, n = 3
Experimental: Animals: Male Dunkin Harley guinea pigs (350-450 g) were provide by the National Laboratory Animal Breeding and Research Center (Taipei, Taiwan) and housed under conditions of constant temperature and controlled illumination. Food and water were available and libitum. The study was approved by the Animal Care and Use Committee of the Kaohsiung Medical University.
Pulmonary Function: Guinea pegs (350-450 g) were anesthetized with pentobarbital (40 mg/kg i.p.) and maintained with further i.v. doses of 2 to 5 mg/kg when required according to methods previously described (Wu B N, Lin R J, Lo Y C, Shen K P, Wang C C, Lin Y T, and Chen I J (2004) KMUP-1, a xanthine derivative, induces relaxation of guinea-pig isolated trachea: the role of the epithelium, cyclic nucleotides and K^+ channels, Br J Pharmacol 142:1105-1114). The animal was tethered in a supine position, and the trachea was cannulated below the larynx with a short tracheal cannula via a tracheotomy. Tracheal pressure was measured by a catheter connected to the side arm of the tracheal cannula. The carotid artery and jugular vein were cannulated to monitor blood pressure and heart rate and for drug administration, respectively. Throughout the experiment, the body temperature of the guinea pig was maintained at 37_. Measurements of pulmonary cardiac function were carried out as previously described (Hsu T H, Lai Y L, and Kou Y R (1998) Acetylcholine and tachykinin receptor antagonists attenuate wood smoke-induced bronchoconstriction in Guinea pigs. Eur J Pharmacol 360:175-183). Total lung resistance (RL) and dynamic lung compliance (Cdyn) were measured on a breath-by-breath basis using a computer equipped with an A/D interface (DAS 1600; Buxco Electronics, Inc., Wilmington, N.C.) and software (version 1.5.7; Buxco Electronics, Inc.). Results obtained from the computer analysis were checked for accuracy by comparison with those calculated manually.
Animals were allowed to stabilize for 10 min following surgical manipulations before the test agent was administered. Intratracheal instillation was performed using a catheter placed through the tracheal tube into the bronchial system. The catheter connected to a 1-ml syringe was inserted into the trachea cannula extending 1 cm beyond the tip of the cannula for instillation of drug or vehicle. The instillation was followed by rapid intratracheal injection of 0.5 ml of air to facilitate deposition of drug or vehicle into the lungs as in the modified methods of Chung et al. (2001)(Chung W H, Bennett B M, Racz W J, Brien J F, and […] Fischer 344 rats during aminodarone-induced pulmonary fibrosis. Am J Physiol 281:L1180-L1188). The animals were pretreated intratracheally with KMUP-3 (0.5, 1.0, and 2.0 mg/kg/150 _l of saline) or an equivalent volume (150 _l) of vehicle 15 min before TNF-_(0.01 mg/kg/300 _l saline) was instilled to induce acute bronchoconstriction. In another experiments, KMUP-3 or KMUP-1 (1.0 mg/kg i.v.) were used to compare the effects on respiratory performance, indicated by changes of tidal volume, total RL, and Cdyn.

[2] = target: T1, PDE3 purified from human platelets (Homo sapiens, UniProt Q14432); assay: Phosphodiesterase activity, PDE3; format: biochemical; details: 10 _M compound, n = 3
T1 construct: PDE3 and PDE5 purified from human platelets; from tissue; host or cells: human platelets
T1 sequence (Q14432 whole entry): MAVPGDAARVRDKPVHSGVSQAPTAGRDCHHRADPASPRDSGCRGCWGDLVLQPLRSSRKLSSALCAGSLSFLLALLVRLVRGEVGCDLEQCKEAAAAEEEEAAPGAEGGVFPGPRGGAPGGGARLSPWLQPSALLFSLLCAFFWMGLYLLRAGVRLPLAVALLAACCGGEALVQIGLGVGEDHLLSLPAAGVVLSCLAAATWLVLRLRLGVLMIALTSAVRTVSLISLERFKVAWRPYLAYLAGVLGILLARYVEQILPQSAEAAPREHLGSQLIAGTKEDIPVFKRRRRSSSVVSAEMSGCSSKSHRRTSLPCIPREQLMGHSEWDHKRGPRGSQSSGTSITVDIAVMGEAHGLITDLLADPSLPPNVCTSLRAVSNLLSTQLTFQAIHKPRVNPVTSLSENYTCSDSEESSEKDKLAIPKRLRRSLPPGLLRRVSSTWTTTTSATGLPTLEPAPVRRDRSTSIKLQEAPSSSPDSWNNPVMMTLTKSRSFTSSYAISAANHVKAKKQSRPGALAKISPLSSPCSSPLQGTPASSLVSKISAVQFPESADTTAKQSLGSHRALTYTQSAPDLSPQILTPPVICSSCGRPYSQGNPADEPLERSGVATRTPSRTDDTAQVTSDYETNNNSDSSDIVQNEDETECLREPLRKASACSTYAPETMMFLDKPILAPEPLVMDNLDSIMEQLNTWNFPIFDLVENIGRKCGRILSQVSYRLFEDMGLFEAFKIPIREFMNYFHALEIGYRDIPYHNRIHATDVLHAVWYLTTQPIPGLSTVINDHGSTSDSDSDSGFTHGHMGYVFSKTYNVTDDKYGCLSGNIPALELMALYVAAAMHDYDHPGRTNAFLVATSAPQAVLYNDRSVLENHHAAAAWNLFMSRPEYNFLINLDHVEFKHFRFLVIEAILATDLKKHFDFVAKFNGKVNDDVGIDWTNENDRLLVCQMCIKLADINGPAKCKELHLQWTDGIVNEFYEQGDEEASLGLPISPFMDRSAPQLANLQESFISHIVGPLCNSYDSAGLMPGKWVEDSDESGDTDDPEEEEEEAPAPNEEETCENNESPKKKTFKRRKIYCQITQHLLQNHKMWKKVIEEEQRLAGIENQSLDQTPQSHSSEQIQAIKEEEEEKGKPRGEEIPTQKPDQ

[3] = tested on: PDE4 purified from human U-937 pronocytic cells; assay: Phosphodiesterase activity, PDE4; format: biochemical; details: 10 _M compound, n = 3
Experimental: Phosphodiesterase Activity: PDE activity was determined by the method of Nicholson et al. (Nicholson C D, Challiss R A, and Shahid M (1991) Differential modulation of tissue function and therapeutic potential of selective inhibitors of cyclic nucleotide phosphodiesterase isonzymes. Trends Pharmaclo Sci 12:19-27). PDE3 and PDE5 purified from human platelets and PDE4 purified from human U-937 pronocytic cells were used. Test compound (10 _M) or vehicle was incubated with 0.2 _g of enzyme and 1 _M cAMP containing 0.01 _M [^3H]cAMP in Tris buffer, pH 7.5, for 20 min at 25_. The reaction was terminated by boiling for 2 min, and the resulting […] was converted to adenosine by the addition of 10 mg/ml snake venom nucleotidase, which is followed by a further incubation at 37_for 10 min. Unhydrolyzed cAMP was bound to AG1-X2 resin, and the remaining [^3H]adenosine in the aqueous phase was quantitated by scintillation counting.

[4] = target: T2, PDE5 purified from human platelets (Homo sapiens, UniProt O76074); assay: Phosphodiesterase activity, PDE5; format: biochemical; details: 10 _M compound, n = 3
T2 construct: PDE3 and PDE5 purified from human platelets; from tissue; host or cells: human platelets

PDE3 inhibition [2]: 23 ± 2.2% | PDE5 Inhibition [4]: 29 ± 2.5%
Compound: Cn1c(=O)c2c(ncn2CCN2CCN(c3ccccc3Cl)CC2)n(C)c1=O [KMUP-1, reference compound]
Cdyn, Maximum change of baseline (%) [1]: 35 ± 4.5% | RL, Maximum change of baseline (%) [1]: −20 ± 3.5% | Tidal Volume, Maximum change of baseline (%) [1]: 2.8 ± 0.2% | PDE4 Inhibition [3]: 18 ± 2.3%
